From ChEMBL document CHEMBL1124428, “In vitro metabolic transformations of vinblastine: oxidations catalyzed by peroxidase” (J Med Chem, 1989)
Values after ≈ are worked out from the molar mass of the structure shown.

Assay: Inhibitory concentration against human T-cell leukemic cell line ([…]) in vitro
Format: functional

IC50 | Compound
7.7 µg/mL (≈ 9.33 µM) | CCC(=O)C[C@@H]1CN(C=O)CCc2c([nH]c3ccccc23)[C@@](C(=O)OC)(c2cc3c(cc2OC)N(C)[C@H]2[C@](O)(C(=O)OC)[C@H](OC(C)=O)[C@]4(CC)C=CCN5CC[C@]32[C@@H]54)C1 [CATHARININE]
0.1 µg/mL (≈ 0.123 µM) | CC[C@]1(O)C[C@@H]2CN(CCc3c([nH]c4ccccc34)[C@@](C(=O)OC)(c3cc4c(cc3OC)N(C)[C@H]3[C@@](O)(C(=O)OC)[C@H](OC(C)=O)[C@]5(CC)C=CCN6CC[C@]43[C@@H]65)C2)C1 [VINBLASTINE]
0.025 µg/mL (≈ 0.0303 µM) | CC[C@]1(O)C[C@H]2CN(CCc3c([nH]c4ccccc34)[C@@](C(=O)OC)(c3cc4c(cc3OC)N(C=O)[C@H]3[C@@](O)(C(=O)OC)[C@H](OC(C)=O)[C@]5(CC)C=CCN6CC[C@]43[C@@H]65)C2)C1 [VINCRISTINE]
0.4 µg/mL | CC[C@]12CN3CCc4c([nH]c5ccccc45)[C@@](C(=O)OC)(c4cc5c(cc4OC)N(C)[C@H]4[C@@](O)(C(=O)OC)[C@H](OC(C)=O)[C@]6(CC)C=CCN7CC[C@]54[C@@H]76)C[C@@H](C3)[C@H]1O2.CC[C@]12CN3CCc4c([nH]c5ccccc45)[C@@](C(=O)OC)(c4cc5c(cc4OC)N(C)[C@H]4[C@@](O)(C(=O)OC)[C@H](OC(C)=O)[C@]6(CC)C=CCN7CC[C@]54[C@@H]76)C[C@@H](C3)[C@H]1O2.O=S(=O)(O)O [VINLEUROSINE SULFATE]
